One test has as its system MKN1 cells, pERK. The test can be described thus: Inhibition of KRas phosphorylation of ERK (Cisbio HTRF Advanced pERK assay). Conditions: Homo sapiens, MKN-1, 3 h, read-out: Inhibition (HTRF IC50 nM) of KRas-mediated Phosphorylation of ERK, MKN1. The format is cell-based. On the procedure:
(§1) Inhibition of KRas Phosphorylation of ERK (HTRF) by Exemplary Compounds of Formula (I)
(§2) Cisbio HTRF Advanced pERK Assay Catalog #64AERPEH
(§3) • Day 1: Seed 6,000 cells/well −25 μl/well in 384-well white solid bottom plate; RPM1_10% FBS. […] To harvest cells from flask using 0.05% Trypsin/EDTA solution. Add 10 mL of media to stop trypsinizing. Pipette the cells into a conical bottom 50 mL centrifuge tube and centrifuge 5 min×1000 rpm. • 2. Re-suspend the cell pellet in media, take a cell count, and then adjust the cell density using fresh media. • 3. Seed 6,000 cells into cell culture plate with […]. The • 4. Incubate cell plate overnight in a 37° C., 5% CO2 incubator. Compound Titrations • 1. Use Tecan to complete the compound addition. Compounds start from 10 uM top, 3-fold dilution, and 10 doses. The final DMSO concentration is 0.8%. Dispensed 0.2 uM Trametinib as Min control. • 2. Incubate cell plate for 3 hrs in the incubator. Detection with Cisbio pERK HTRF Kit • 1. Dilute 1 volume of 4× lysis buffer with 3 volumes of deionized water. Then, add 100× the blocking reagent. Keep lysis buffer on the ice. • 2. At the end of the compound treatment, flick-off the media. • 3. Add 35 μL of lysis buffer per well using a Multidrop Combi. Then place on a plate agitator shaking at 300 rpm at 4° C. for 40 mins. • 4. Make up the HTRF antibody buffer. For each assay plate, mix 50 μL of d2-conjugate antibody with 950 μL of detection buffer. Similarly, mix 50 μL of Cryptate antibody with 950 μL of detection buffer. Then mix the two diluted antibodies together. • 5. Dispense 3.4 μL the antibody buffer to wells of an empty assay plate. Seal the plate and centrifuge plate 30 sec×1000 rpm. • 6. At the end of the 4° C. lysis, centrifuge the lysate plates 3 mins×1500 rpm. • 7. Use the Bravo to transfer 13.6 μL of lysate from cell culture plate to assay plate. Then incubate assay plate for 2 hrs at room temperature. • 8. At the end of incubation, read plate on the Envision after centrifuging plate 30 sec×1000 rpm.
(In general: TR-FRET usually uses a lanthanide donor and a delayed reading to cut background.)

The subject of the next test is ASPC1 cells, pERK. The description is as above. In kind it is cell-based. Conditions: Homo sapiens, ASPC1, 3 h, AsPC-1 cells, read-out: Inhibition (HTRF IC50 nM) of KRas-mediated Phosphorylation of ERK, AsPC-1. How it is done:
as §1, §2, §3

In another test the test system is H727 cells, pERK. The description is as above. In kind it is cell-based. Conditions: Homo sapiens, NCI-H727, 3 h, read-out: Inhibition (HTRF IC50 nM) of KRas-mediated Phosphorylation of ERK, H727. On the procedure: as §1, §2, §3
The next test has as its system PSN1 cells, pERK. Described as above. Conditions: Homo sapiens, PSN1, 3 h, read-out: Inhibition (HTRF IC50 nM) of KRas-mediated Phosphorylation of ERK, PSN1. The format is cell-based. How it is done:
as §1, §2, §3

For another test, the target named is T1, KRas^G12R (Homo sapiens, UniProt P01116, G12R).
T1 construct: […]; biotin (biotinylated); purchased Accelegan Inc
The experiment in a line: KRas binding assay (TR-FRET displacement of Cy5 labelled tracer).

The target of a further test is T2, KRas^G12D (Homo sapiens, UniProt P01116, G12D).
T2 construct: […]; biotin (biotinylated); purchased Accelegan Inc
The test is described as above.

The target in the next test is T3, KRas^G12V (Homo sapiens, UniProt P01116, G12V).
T3 construct: […]; biotin (biotinylated); purchased Accelegan Inc
The test is described as above.

SMILES strings stand for the structures.

T1 sequence (P01116 1-169 isoform P01116-2 G12R): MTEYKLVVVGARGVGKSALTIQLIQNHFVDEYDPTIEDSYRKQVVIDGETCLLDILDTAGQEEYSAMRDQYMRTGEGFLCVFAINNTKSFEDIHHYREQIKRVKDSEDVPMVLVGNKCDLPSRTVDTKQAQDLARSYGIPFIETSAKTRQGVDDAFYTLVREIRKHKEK
T2 sequence (P01116 1-169 isoform P01116-2 G12D): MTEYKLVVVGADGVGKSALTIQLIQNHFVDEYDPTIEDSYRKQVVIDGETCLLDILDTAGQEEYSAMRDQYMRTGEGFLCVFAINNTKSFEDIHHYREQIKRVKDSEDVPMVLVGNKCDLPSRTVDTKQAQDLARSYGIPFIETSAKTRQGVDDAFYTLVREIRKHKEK
T3 sequence (P01116 1-169 isoform P01116-2 G12V): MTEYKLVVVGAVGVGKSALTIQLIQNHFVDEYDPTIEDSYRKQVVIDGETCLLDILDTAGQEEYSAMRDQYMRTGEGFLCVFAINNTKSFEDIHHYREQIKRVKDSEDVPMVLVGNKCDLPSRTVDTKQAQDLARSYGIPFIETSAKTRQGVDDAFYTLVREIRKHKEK
Experimental for KRas^G12D: (§4) The ability of a compound to bind to KRas was measured using a TR-FRET displacement assay. […] After a 60-minute incubation at room temperature, the reaction was measured using a BMG LABTECH CLARIO star Plus via TR-FRET. […] The POC values were fit to a 4-parameter IC50 equation and the IC50 value reported.
Experimental for KRas^G12R: as §4
Experimental for KRas^G12V: as §4

As usually defined, the IC50 is the point on the concentration scale where inhibition reaches its midpoint. Regarding `Oc1cc(N2CCc3c(nc(OC[C@@]45CCCN4C[C@H](F)C5)nc3N3CCOCC(n4cccn4)C3)C2)c2c(Br)c(F)ccc2c1` (stereo partly drawn) [Example 221, 4-(4-(6-(1H-pyrazol-1-yl)-1,4-oxazepan-4-yl)-2-(((2R,7aS)-2-fluorotetrahydro-1H-pyrrolizin-7a(5H)-yl)methoxy)-5,8-dihydropyrido[3,4-d]pyrimidin-7(6H)-yl)-5-bromo-6-fluoronaphthalen-2-ol], the concentration for half-maximal inhibition (IC50) in the test on MKN1 cells, pERK is 145 nM; in the test on ASPC1 cells, pERK, 1360 nM; with H727 cells, pERK it was 1460 nM; in the test with PSN1 cells, pERK it was at least 10000 nM; on KRas^G12R it was 5 nM; on KRas^G12D it was 4 nM. This compound also yielded a half-maximal inhibitory concentration (IC50) at KRas^G12V of 3 nM.
Take `CN1CCC[C@H]1COc1nc2c(c(N3CCCC4(CNC(=O)N4)C3)n1)CCN(c1cccc3cccc(Cl)c13)C2` (stereo partly drawn) [Example 210, 7-(7-(8-chloronaphthalen-1-yl)-2-(((S)-1-methylpyrrolidin-2-yl)methoxy)-5,6,7,8-tetrahydropyrido[3,4-d]pyrimidin-4-yl)-1,3,7-triazaspiro[4.5]decan-2-one]: the IC50 in the test with ASPC1 cells, pERK was at least 10000 nM; in the test with H727 cells, pERK it was at least 10000 nM; at KRas^G12R, 699 nM; at KRas^G12D, 579 nM; on KRas^G12V, 497 nM.
For `Oc1cc(N2CCc3c(nc(OC[C@@]45CCCN4C[C@H](F)C5)nc3N3CC4CC(O)CC3C4)C2)c2c(Br)c(F)ccc2c1` (single isomer, unassigned) [Example 213], the concentration for half-maximal inhibition (IC50) in the test on PSN1 cells, pERK was 6500 nM; at KRas^G12R it was 3 nM; at KRas^G12D, 11 nM; on KRas^G12V, 3 nM.
On to `CN1CCC[C@H]1COc1nc2c(c(N3CCCC4(C3)NC(=O)NC4=O)n1)CCN(c1cccc3cccc(Cl)c13)C2` (stereo partly drawn) [Example 211, 9-[7-(8-chloro-1-naphthyl)-2-[[(2S)-1-methylpyrrolidin-2-yl]methoxy]-6,8-dihydro-5H-pyrido[3,4-d]pyrimidin-4-yl]-1,3,9-triazaspiro[4.5]decane-2,4-dione], for which the IC50 with ASPC1 cells, pERK amounted to 4890 nM; in the test with H727 cells, pERK, 2880 nM; on KRas^G12R, 34 nM; at KRas^G12D, 101 nM; on KRas^G12V, 38 nM.
Turning to `CN1CCC[C@H]1COc1nc2c(c(N3C[C@@H]4C(=O)NC(=O)[C@@H]4C3)n1)CCN(c1cccc3cccc(Cl)c13)C2` [Example 206, (3aS,6aR)-5-[7-(8-chloro-1-naphthyl)-2-[[(2S)-1-methylpyrrolidin-2-yl]methoxy]-6,8-dihydro-5H-pyrido[3,4-d]pyrimidin-4-yl]-3a,4,6,6a-tetrahydropyrrolo[3,4-c]pyrrole-1,3-dione], the concentration for half-maximal inhibition (IC50) in the test with ASPC1 cells, pERK is at least 10000 nM; with H727 cells, pERK it was at least 10000 nM; at KRas^G12R, 1620 nM; on KRas^G12D it was 932 nM; on KRas^G12V, 833 nM.
With `CCc1c(F)ccc2cc(O)cc(N3CCc4c(nc(OC[C@@]56CCCN5C[C@H](F)C6)nc4N4C[C@H](O)C[C@@H](C(N)=O)C4)C3)c12` [Example 186, (3R,5R)-1-(7-(8-ethyl-7-fluoro-3-hydroxynaphthalen-1-yl)-2-(((2R,7aS)-2-fluorohexahydro-1H-pyrrolizin-7a-yl)methoxy)-5,6,7,8-tetrahydropyrido[3,4-d]pyrimidin-4-yl)-5-hydroxypiperidine-3-carboxamide], the IC50 with ASPC1 cells, pERK was 4360 nM; in the test with H727 cells, pERK, 2670 nM; at KRas^G12R, at most 2 nM; at KRas^G12D it was at most 2 nM; on KRas^G12V, at most 2 nM.
As for `CN(C)C(=O)c1cc2n(n1)CCCN(c1nc(OC[C@@H]3CCCN3C)nc3c1CCN(c1cccc4cccc(Cl)c14)C3)C2` [Example 209, (S)-5-(7-(8-chloronaphthalen-1-yl)-2-((1-methylpyrrolidin-2-yl)methoxy)-5,6,7,8-tetrahydropyrido[3,4-d]pyrimidin-4-yl)-N,N-dimethyl-5,6,7,8-tetrahydro-4H-pyrazolo[1,5-a][1,4]diazepine-2-carboxamide], the half-maximal inhibitory concentration (IC50) with ASPC1 cells, pERK was determined as 7200 nM; with H727 cells, pERK, 8520 nM; on KRas^G12R it was 4140 nM; at KRas^G12D it was 1120 nM; on KRas^G12V it was 1900 nM.
In the case of `CCc1c(F)ccc2cc(O)cc(N3CCc4c(nc(OC[C@@]56CCCN5C[C@H](F)C6)nc4N4CC5CCC(C4)O5)C3)c12` [Example 176, 4-(4-(8-oxa-3-azabicyclo[3.2.1]octan-3-yl)-2-(((2R,7aS)-2-fluorotetrahydro-1H-pyrrolizin-7a(5H)-yl)methoxy)-5,8-dihydropyrido[3,4-d]pyrimidin-7(6H)-yl)-5-ethyl-6-fluoronaphthalen-2-ol], the IC50 in the test with ASPC1 cells, pERK is 5940 nM; in the test with H727 cells, pERK, 984 nM; on KRas^G12R, at most 2 nM; at KRas^G12D, 78 nM; on KRas^G12V, 11 nM.
For the compound `CN1CCC[C@H]1COc1nc2c(c(N3CCCC4(CC(=O)N4)C3)n1)CCN(c1cccc3cccc(Cl)c13)C2` (stereo partly drawn) [Example 207, 8-[7-(8-chloro-1-naphthyl)-2-[[(2S)-1-methylpyrrolidin-2-yl]methoxy]-6,8-dihydro-5H-pyrido[3,4-d]pyrimidin-4-yl]-1,8-diazaspiro[3.5]nonan-2-one], the concentration for half-maximal inhibition (IC50) in the test with ASPC1 cells, pERK is at least 10000 nM; in the test with H727 cells, pERK, at least 10000 nM; at KRas^G12R, 553 nM; at KRas^G12D, 765 nM; at KRas^G12V, 404 nM.
Consider `Oc1cc(N2CCc3c(nc(OC[C@@]45CCCN4C[C@H](F)C5)nc3N3CC4CC(O)CC3C4)C2)c2c(Cl)c(F)ccc2c1` (single isomer, unassigned) [Example 76], for which the IC50 in the test with PSN1 cells, pERK amounted to 5630 nM; on KRas^G12R it was 7 nM; on KRas^G12D, 37 nM; at KRas^G12V, 7 nM.
With `CCc1c(F)ccc2cc(O)cc(N3CCc4c(nc(OC[C@@]56CCCN5C[C@H](F)C6)nc4N4C[C@H](O)C[C@H](C(N)=O)C4)C3)c12` [Example 187, (3S,5R)-1-(7-(8-ethyl-7-fluoro-3-hydroxynaphthalen-1-yl)-2-(((2R,7aS)-2-fluorohexahydro-1H-pyrrolizin-7a-yl)methoxy)-5,6,7,8-tetrahydropyrido[3,4-d]pyrimidin-4-yl)-5-hydroxypiperidine-3-carboxamide], the IC50 was 5330 nM in the test with ASPC1 cells, pERK; 1320 nM in the test with H727 cells, pERK; at most 2 nM on KRas^G12R; 4 nM on KRas^G12D; at most 2 nM on KRas^G12V.
On to `CN1CCC[C@H]1COc1nc2c(c(N3CCCC4(CNS(=O)(=O)N4)C3)n1)CCN(c1cccc3cccc(Cl)c13)C2` (stereo partly drawn) [Example 208, 9-[7-(8-chloro-1-naphthyl)-2-[[(2S)-1-methylpyrrolidin-2-yl]methoxy]-6,8-dihydro-5H-pyrido[3,4-d]pyrimidin-4-yl]-2λ6-thia-1,3,9-triazaspiro[4.5]decane 2,2-dioxide], for which the IC50 in the test on ASPC1 cells, pERK was 4050 nM; with H727 cells, pERK, 6940 nM; on KRas^G12R, 350 nM; at KRas^G12D, 136 nM; at KRas^G12V, 197 nM.
For the compound `C[C@@]1(O)CCCN(c2nc(OCC34CCCN3CCC4)nc3c2CCN(c2cc(O)cc(Cl)c2C2CC2)C3)C1` [Example 204, (R)-1-(7-(3-chloro-2-cyclopropyl-5-hydroxyphenyl)-2-((hexahydro-1H-pyrrolizin-7a-yl)methoxy)-5,6,7,8-tetrahydropyrido[3,4-d]pyrimidin-4-yl)-3-methylpiperidin-3-ol], the 50% inhibitory concentration (IC50) in the test on ASPC1 cells, pERK is 1530 nM; in the test with H727 cells, pERK, 1670 nM; at KRas^G12R, 9 nM; on KRas^G12D, 6 nM; on KRas^G12V it was 6 nM.
In the case of `Cc1cc2[nH]ncc2c(N2CCc3c(nc(OCC45CCCN4CCC5)nc3N3CCC[C@@](C)(O)C3)C2)c1C` [Example 15, (R)-1-(7-(5,6-dimethyl-1H-indazol-4-yl)-2-((hexahydro-1H-pyrrolizin-7a-yl)methoxy)-5,6,7,8-tetrahydropyrido[3,4-d]pyrimidin-4-yl)-3-methylpiperidin-3-ol], the IC50 is 1110 nM in the test with ASPC1 cells, pERK; 3190 nM with H727 cells, pERK; 144 nM on KRas^G12R; 126 nM at KRas^G12D; 103 nM on KRas^G12V.

Values taken from patent publication US12421253B2 (Mirati Therapeutics, Inc., priority 2020, dated 2025).
